# Measured values published in patent EP1800684A1, “Novel alkyl phospholipid derivatives and uses thereof” (Zentaris GmbH, priority 2005, dated 2007).
# Where two headings read alike, the source gives them in different places.
# How the values were obtained:
# Format in all cases: cell-based
# [1] = tested on: Trypanosoma brucei rhodesiense (strain STIB900); test: In vitro drug activity assay, protozoon B (bloodstream form trypomastigotes, Alamar Blue); details: incubated for 72 hours
# Procedure: Trypanosoma brucei rhodesiense STIB900 bloodstream form trypomastigotes were maintained in HMI-18 medium (Hirumi H, Hirumi K, J Parasitol. 1989, 75(6):985-989) with 15% heat-inactivated fetal calf serum at 37°C, 5% CO2, humidified atmosphere. Trypomastigotes were washed and resuspended in fresh medium at a concentration of 2 x 10^5 mL. Test compounds were given to the trypomastigotes and plates were incubated for 72 hours at 37°C, 5% CO2, humidified atmosphere. At 72 hours the plates were assessed microscopically before Alamar Blue was added (Raz et al., Acta Trop. 1997, 68: 139-147). Plates were read after 5 to 6 hours at EX/EM 530/585 nm with a filter cutoff at 550 nm. ED50 values were calculated with Msxlfit (IDBS).
# (§1) The following protozoa were assessed: • A) Trypanosoma cruzi (Tulahuan-LACZ amstigotes in PEM, Lorente SO et al., Antimicrobial agents and chemotherapy 2004, 48(8): 2937-2950; Buckner et al., Infection and Immunity 1999, 67(1): 403-409; Buckner et al., Antimicrobial Agents and Chemotherapy 1996, 40(11): 2592-2597) • B) Trypanosoma brucei rhodesiense (strain STIB900, Lorente SO et al., Antimicrobial agents and chemotherapy 2004, 48(8): 2937-2950; Habtemariam S, BMC Pharmacology 2003, 3:6) • C) Plasmodium falciparum (strain K1, Korsinczky M et al., Antimicrobial agents and chemotherapy 2000, 44(8): 2100-2108; Thaitong S and Beale GH, Trans. R. Soc. Trop. Med. Hyg. 1981, 75: 271-273; Trager W and Jensen JB, Science 1976, 193: 673-675) • D) Plasmodium falciparum (strain 3D7, Mu et al., PLoS Biology 2005, 3(10): e335)
# [2] = tested on: Plasmodium falciparum (strain K1); test: In vitro drug susceptibility assay, protozoon C (3[H]-hypoxanthine method)
# Procedure: (§2) Plasmodium falciparum strain K1 and strain 3D7 parasites were cultured according to Trager W and Jensen JB (Science 1976, 193: 673-675). In vitro drug susceptibility assays with the test compounds were carried out according to Korsinczky M et al. (Antimicrobial agents and chemotherapy 2000, 44(8): 2100-2108) and Fivelman QL et al. (Antimicrobial agents and chemotherapy 2004, 48(11): 4097-4102) using a ^3[H]-hypoxanthine radioisotope method. ED50 values were calculated with Msxlfit (IDBS).
# as §1
# [3] = tested on: Plasmodium falciparum (strain 3D7); test: In vitro drug susceptibility assay, protozoon D (3[H]-hypoxanthine method)
# Procedure: as §2, §1
# [4] = tested on: Candida albicans (ATCC 10231); test: Anti-fungal susceptibility test (microdilution), fungus A
# Procedure: (§3) The antifungal activities of the test compounds (compounds of the invention and known prior art compounds) were measured according to standard microdilution methods (Cryptococcus/Aspergillus: Ghannoum et al., Journal of Clinical Microbiology 1992, 30 (11): 2881-2886; Candida: Reference method for broth dilution susceptibility testing of yeast: proposed standard, NCCLS document M27-P, National Committee for Clinical Laboratory Standards 1992, Villanova, Pa).
# (§4) A serial dilution series starting from 64 µg/mL test compound per well down to 0.125 µg/mL test compound per well was applied for each test compound on each fungus. The MIC of each compound was defined as the concentration which produces no visible growth after 48 hours (Candida) and 72 hours (Cryptococcus, Aspergillus) of culture at 35° C.
# (§5) The following fungi were assessed: • A) Candida albicans (ATCC 10231) • B) Candida albicans (ATCC 90028) • C) Candida albicans (strain TS3, Shrikantha et al., Journal of Bacteriology 2000, 182(6):1580-1591) • D) Candida parapsilosis (ATCC 22019) • E) Cryptocoocus neoformans (ATCC 90112) • F) Cryptocoocus neoformans (strain H99; Ganendren et al., Antimicrobial Agents and Chemotherapy, 2004, 48(5):1561-1569) • G) Cryptocoocus gattii (ATCC 32608) • H) Aspergillus fumigatus (ATCC 204305) • I) Aspergillus fumigatus (strain 322-384)
# [5] = tested on: Candida albicans (ATCC 90028); test: Anti-fungal susceptibility test (microdilution), fungus B
# Procedure: as §3, §4, §5
# [6] = tested on: Candida albicans (strain TS3); test: Anti-fungal susceptibility test (microdilution), fungus C; details: no visible growth after 48 hours at 35° C
# Procedure: as §3, §4, §5
# [7] = tested on: Candida parapsilosis (ATCC 22019); test: Anti-fungal susceptibility test (microdilution), fungus D
# Procedure: as §3, §4, §5
# [8] = tested on: Cryptocoocus neoformans (ATCC 90112); test: Anti-fungal susceptibility test (microdilution), fungus E
# Procedure: as §3, §4, §5
# [9] = tested on: Cryptocoocus neoformans (strain H99); test: Anti-fungal susceptibility test (microdilution), fungus F; details: fungus F; no visible growth after 72 hours at 35° C; read-out: MIC
# Procedure: as §3, §4, §5
# [10] = tested on: Cryptocoocus gattii (ATCC 32608); test: Anti-fungal susceptibility test (microdilution), fungus G; details: fungus G; no visible growth after 72 hours at 35° C; read-out: MIC
# Procedure: as §3, §4, §5
# [11] = tested on: Aspergillus fumigatus (ATCC 204305); test: Anti-fungal susceptibility test (microdilution), fungus H
# Procedure: as §3, §4, §5
# [12] = tested on: Aspergillus fumigatus (strain 322-384); test: Anti-fungal susceptibility test (microdilution), fungus I; details: no visible growth after 72 hours at 35° C
# Procedure: as §3, §4, §5
# [13] = tested on: RKOp21 (human colon adenocarcinoma) cells; test: XTT cytotoxicity assay, RKOp21 cells; details: 48 h, 2 days of continuous drug exposure
# Procedure: (§6) Human tumor cell lines KB/HeLa (ATCC CCL17, human cervix carcinoma), PC3 (ATCC CRL1435, human prostate carcinoma) and RKOp21 (human colon adenocarcinoma) cells were used in an automated XTT screening assay for the assessment of cytotoxicity.
# (§7) The XTT assay quantifies cellular metabolic activity which correlates with cell viability and cell number. Test compounds (selected compounds of the invention and known substances as controls) are dissolved in culture medium at 600µM and added to the tumor cells in 10 different concentrations in a semi-logarithmic fashion starting from 100 µM as highest concentration.
# (§8) 48h later cellular metabolic activity of cells treated with test compounds is quantified by measurement of the absorbance at 490nm (conversion of XTT dye) in comparison to untreated control cells (100% viability).
# (§9) KB/HeLa and PC3 cells were cultivated in RPMI medium supplemented with 10% heat inactivated fetal calf serum, 2 mM glutamine, 100 U/ml penicillin, and 100 µg/ml streptomycin. RKOp21 cells were grown in DMEM supplemented with 10% heat inactivated fetal calf serum, 2 mM glutamine, 100 U/ml penicillin, and 100 µg/ml streptomycin. All cells were cultured at 37°C in 5% CO2 humidified air.
# (§10) On the first day of the experiment cells were harvested from exponential phase cultures by trypsination, counted and plated into 96 well flat-bottom micro titer plates depending on the cell line as listed below:
# (§11) After a 24h recovery to allow the cells to resume exponential growth, the test compounds were diluted immediately prior to use and transferred in 25µl volume to the wells.
# (§12) Following 2 days of continuous drug exposure 50µl of freshly prepared XTT-PMS solution (2% […] PMS in PBS + 98% 1 mg/ml XTT in RPMI 1640 without phenol red) was added to the wells. To measure the proportion of living cells, the cells were incubated for 3 h with XTT-PMS reagent at 37°C, 5% CO2, humidified atmosphere allowing to form the formazan salt. The amount of soluble formazan salt produced by cellular reduction of XTT is quantified by measuring the absorbance at 490nm using the Biomek® 2000 ELISA plate reader.
# (§13) %-inhibition (cytotoxicity) of each test compound was calculated in relation to untreated control cells. Inhibition curves were generated and IC50 values calculated by using GraphPad Prism.
# [14] = tested on: PC3 (ATCC CRL1435, human prostate carcinoma); test: XTT cytotoxicity assay, PC3 cells; details: PC-3, 48 h, 2 days of continuous drug exposure
# Procedure: as §6, §7, §8, §9, §10, §11, §12, §13
# [15] = tested on: KB/HeLa (ATCC CCL17, human cervix carcinoma); test: XTT cytotoxicity assay, KB/HeLa cells; details: 48 h, 2 days of continuous drug exposure
# Procedure: as §6, §7, §8, §9, §10, §11, §12, §13
# [16] = tested on: Trypanosoma cruzi (Tulahuan-LACZ amstigotes in PEM); test: In vitro drug activity assay, protozoon A (amastigotes in murine peritoneal macrophages, CPRG readout); details: infected macrophages exposed for 3 days
# Procedure: Murine (CD1) peritoneal macrophages were harvested 24 hours after starch induction and dispensed into 96-well plates at a concentration of 4 x 10^5 mL. After 24 hours, the cells were infected with Trypanosoma cruzi Tulahuan LAC-Z amastigotes (grown and cultured according to Buckner et al., Infection and Immunity 1999, 67(1): 403-409). 24 hours later, the infected cells were exposed to the test compounds (compounds of the invention as well as known prior art compounds) for 3 days and 50 µL of 500 µM CPRG-1% Nonidet P-40 was added to each well. The plates were read after 2 to 5 hours at 570 nm (Buckner et al., Antimicrobial Agents and Chemotherapy 1996, 40(11): 2592-2597). ED50 values were calculated with Msxlfit (IDBS).
# as §1
# [17] = Candida albicans, ATCC10231, no visible growth after 48 hours at 35° C, read-out: MIC
# [18] = Candida albicans, ATCC90028, no visible growth after 48 hours at 35° C, read-out: MIC
# [19] = Candida albicans, read-out: MIC
# [20] = ATCC22019, no visible growth after 48 hours at 35° C, read-out: MIC
# [21] = Aspergillus fumigatus, ATCC204305, no visible growth after 72 hours at 35° C, read-out: MIC
# [22] = Aspergillus fumigatus, read-out: MIC
# [23] = no visible growth after 48 hours at 35° C
smiles,measurement,setting,value
"CCCCCCCCCCCCCCCCOP(=O)([O-])OC1CC[N+](C)(CCc2ccccc2)CC1 (centres unmarked) [Compound 4, Phosphoric acid 1-methyl-1-phenethyl-piperidin-4-yl ester hexadecyl ester]",ED50 (µg/mL),[1],"12,29 µg/mL"
same,ED50 (µg/mL),[2],"5,44 µg/mL"
same,ED50 (µg/mL),[3],"15,32 µg/mL"
"CCCCCCCCCCCCCCCCOCCCOP(=O)([O-])OCC[N+](C)(C)C [Compound 8, Phosphoric acid 3-hexadecyloxy-propyl ester 2-trimethylammonium-ethyl ester]",MIC,[4]; [17],0.75 µg/mL
same,MIC,[5]; [18],0.75 µg/mL
same,MIC,[6]; [19],1 µg/mL
same,MIC,[7]; [20],0.75 µg/mL
same,MIC,"[8]; fungus E, no visible growth after 72 hours at 35° C, read-out: MIC",2 µg/mL
same,MIC,[9],1.5 µg/mL
same,MIC,[10],0.75 µg/mL
same,MIC,[11]; [21],2 µg/mL
same,MIC,[12]; [22],2 µg/mL
"CCCCCCCC/C=C\CCCCCCCCCCCCOP(=O)([O-])OC1CC[N+](C)(C)CC1 [Compound 17, Phosphoric acid 1,1-dimethyl-piperidin-4-yl ester (Z)-docos-13-enyl ester]",IC50,[13],32.5 µM
same,IC50,[14],18.3 µM
same,IC50,[15],16.6 µM
"CCCCCCCC/C=C\CCCCCCCCOP(=O)(O)OCCN1CCCCC1 [Compound 19, Phosphoric acid (Z)-octadec-9-enyl ester 2-piperidin-1-yl-ethyl ester]",IC50,[13],> 100 µM
same,IC50,[14],> 100 µM
same,IC50,[15],> 100 µM
"CCCCCCCCCCOCCOCCOP(=O)([O-])OCC[N+]1(C)CCCCC1 [Compound 20, Phosphoric acid 2-(2-decyloxy-ethoxy)-ethyl ester 2-(1-methylpiperidin-1-yl)-ethyl ester]",IC50,[13],> 100 µM
same,IC50,[14],> 100 µM
same,IC50,[15],> 100 µM
CCCCCCCCCCCCCCCCCCOP(=O)([O-])OCC[As+](C)(C)C [Compound 22],MIC,[4]; [23],0.5 µg/mL
same,MIC,[5]; [23],1 µg/mL
same,MIC,[6],1 µg/mL
same,MIC,[7]; [23],1 µg/mL
same,MIC,[11]; no visible growth after 72 hours at 35° C,4 µg/mL
same,MIC,[12],2 µg/mL
"CCCCCCCC/C=C\CCCCCCCCCCCCOP(=O)([O-])OCC[N+](C)(C)C [ErPC, (13Z)-docosenylphosphocholine, reference compound]",MIC,[4]; [17],> 64 µg/mL
same,MIC,[5]; [18],> 64 µg/mL
same,MIC,[6]; [19],> 64 µg/mL
same,MIC,[7]; [20],> 64 µg/mL
same,MIC,[8]; 72 h,4 µg/mL
same,MIC,[9],3 µg/mL
same,MIC,[10],1.5 µg/mL
same,MIC,[11]; [21],> 64 µg/mL
same,MIC,[12]; [22],> 64 µg/mL
"O=C(Cn1ccnc1[N+](=O)[O-])NCc1ccccc1 [benznidazole, Benznidazole, reference compound]",ED50 (µg/mL),[16],"0,22 µg/mL"
"CCCCCCCCCCCCCCCCOP(=O)([O-])OCC[N+](C)(C)C [miltefosine, reference compound]",IC50,[13],18 µM
same,IC50,[14],9.39 µM
same,IC50,[15],8.66 µM
same,ED50 (µg/mL),[16],"0,63 µg/mL"
"CCCCCCCCCCCCCCCCCCOP(=O)([O-])OC1CC[N+](C)(C)CC1 [perifosine, octadecyl-1,1-dimethyl-piperidino-4-yl-phosphate, reference compound]",IC50,[13],3.31 µM
same,IC50,[14],3.22 µM
same,IC50,[15],2.37 µM
